Like-named read-outs stand apart in the source and are kept apart here. Starred links: 1 amine or outer side, 2 acyl side, 3 side chain; linkers in the order of their positions; H or OH if unused. Positions of bridges follow the written chain, without caps; N, C: chain ends. Residues, ends and D or L forms follow the SMILES beside them. Groups on a side chain read outwards from the residue. *: point of attachment. C20 diacid = O=C(O)CCCCCCCCCCCCCCCCCCC(=O)*; C18 diacid = O=C(O)CCCCCCCCCCCCCCCCC(=O)*; γGlu = O=C(O)[C@H](CCC(=O)[*:2])N[*:1]; AEEA = NCCOCCOCC(=O)O

Data set [1] deals with T1, human amylin receptor (amylin 3(a) receptor: human calcitonin receptor + RAMP-3) (Homo sapiens, UniProt O60896+P30988).
T1 construct: expressed in transfected cells; host or cells: BHK570
T1 sequence (P30988 25-474): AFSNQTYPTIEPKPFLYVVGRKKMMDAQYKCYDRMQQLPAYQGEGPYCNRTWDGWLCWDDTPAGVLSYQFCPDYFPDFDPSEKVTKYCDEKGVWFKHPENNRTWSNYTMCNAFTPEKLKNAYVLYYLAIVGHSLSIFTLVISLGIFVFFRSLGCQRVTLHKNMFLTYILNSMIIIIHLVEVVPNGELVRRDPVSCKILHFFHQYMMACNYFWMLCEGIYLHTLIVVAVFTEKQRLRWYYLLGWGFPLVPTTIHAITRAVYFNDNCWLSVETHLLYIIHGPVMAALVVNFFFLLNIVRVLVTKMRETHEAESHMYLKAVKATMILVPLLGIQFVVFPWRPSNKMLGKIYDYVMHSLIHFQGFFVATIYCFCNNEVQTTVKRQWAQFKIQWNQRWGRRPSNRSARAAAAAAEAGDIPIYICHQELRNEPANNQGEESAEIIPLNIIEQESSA
T1 sequence (O60896 24-148 partner): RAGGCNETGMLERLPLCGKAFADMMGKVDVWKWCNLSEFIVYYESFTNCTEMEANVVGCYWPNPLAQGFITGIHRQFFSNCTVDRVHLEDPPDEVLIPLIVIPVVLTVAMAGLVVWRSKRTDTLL
Nature of the data set: Assay (II)a functional CRE-luciferase assay, human amylin receptor. The following applies: Table 2; BHK amylin 3(a)-receptor/CRE-luc cells. In kind it is cell-based.

The nature of data set [2]: Assay (IV) determination of solubility. It counts as physicochemical. The essentials:
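Solubility was profiled across pH 3.0–8.0 after 18 hours at room temperature: a ~500 nmol/ml aqueous polypeptide solution was diluted 1:1 into 100 mM glycylglycine or bistrispropane buffers. After centrifugation, HPLC gave the dissolved concentration.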

For data set [3], the target named is T2, human calcitonin receptor (Homo sapiens, UniProt P30988).
T2 construct: expressed in transfected cells; host or cells: BHK570
T2 sequence (P30988 25-474): T1 sequence (P30988 25-474)
As to the kind of experiment: Assay (II)a functional CRE-luciferase assay, human calcitonin receptor. It counts as cell-based.

Data set [4] is described as follows: Assay (III) ThT fibrillation assay for physical stability. In kind it is physicochemical. In short, it runs like this:
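Freshly prepared formulations, pH-adjusted, with 1 μM ThT; four or eight replicates incubated at 37 °C under 960 rpm orbital shaking. Fluorescence (ex 444/em 485 nm) read every 20 min; […]. Peptide concentration measured by RP-HPLC before and after the run.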

Setting [5] is: bistrispropane buffer, pH 6, pH 6.0, read-out: Solubility pH 6.0.
Setting [6] is: bistrispropane buffer, pH 6.5, pH 6.5, read-out: Solubility pH 6.5.
[7] abbreviates: bistrispropane buffer, pH 7, pH 7.0, 18 hours at room temperature, Table 3, read-out: Solubility pH 7.0.
[8] abbreviates: bistrispropane buffer, pH 7, pH 7.0, read-out: Solubility pH 7.0.
Setting [9] is: bistrispropane buffer, pH 7.5, pH 7.5, read-out: Solubility pH 7.5.
Setting [10] is: bistrispropane buffer, pH 8, pH 8.0, read-out: Solubility pH 8.0.
Where [11] appears, read: glycylglycine buffer, pH 3, pH 3.0, read-out: Solubility pH 3.0.
Where [12] appears, read: glycylglycine buffer, pH 4, pH 4.0, 18 hours at room temperature, Table 2, read-out: Solubility pH 4.0.
[13] abbreviates: glycylglycine buffer, pH 4, pH 4.0, read-out: Solubility pH 4.0.
Setting [14] is: glycylglycine buffer, pH 5, pH 5.0, read-out: Solubility pH 5.0.
The mark [15] stands for this setting: Table 7, human calcitonin (CTa) receptor.
The mark [16] stands for this setting: bistrispropane buffer, pH 7, pH 7.0, Table 8, read-out: Solubility pH 7.0.
Where [17] appears, read: bistrispropane buffer, pH 7, pH 7.0, Table 9, read-out: Solubility pH 7.0.
The mark [18] stands for this setting: bistrispropane buffer, pH 7.5, pH 7.5, Table 9, read-out: Solubility pH 7.5.

Regarding `CC[C@H](C)[C@H](NC(=O)[C@@H]1CCCN1C(=O)CNC(=O)[C@H](Cc1ccccc1)NC(=O)[C@H](CC(N)=O)NC(=O)[C@H](CC(N)=O)NC(=O)[C@H](CO)NC(=O)[C@H](CO)NC(=O)[C@H](Cc1c[nH]cn1)NC(=O)[C@H](Cc1c[nH]cn1)NC(=O)[C@H](CC(C)C)NC(=O)[C@H](Cc1ccccc1)NC(=O)[C@H](CCC(=O)O)NC(=O)[C@H](C)NC(=O)[C@H](CC(C)C)NC(=O)[C@H](CCCNC(=N)N)NC(=O)[C@H](CCC(N)=O)NC(=O)[C@@H](NC(=O)[C@H](C)NC(=O)[C@@H]1CSSC[C@H](NC(=O)[C@H](CCC(=O)O)NC(=O)COCCOCCNC(=O)COCCOCCNC(=O)CC[C@H](NC(=O)CCCCCCCCCCCCCCCCC(=O)O)C(=O)O)C(=O)N[C@@H](CC(N)=O)C(=O)N[C@@H]([C@@H](C)O)C(=O)N[C@@H](C)C(=O)N[C@@H]([C@@H](C)O)C(=O)N1)[C@@H](C)O)C(=O)N[C@@H](CC(C)C)C(=O)N1CCC[C@H]1C(=O)N1CCC[C@H]1C(=O)N[C@H](C(=O)N[C@@H](CC(N)=O)C(=O)N[C@H](C(=O)NCC(=O)N[C@@H](CO)C(=O)N[C@@H](CC(N)=O)C(=O)N[C@H](C(=O)N1CCC[C@H]1C(N)=O)[C@@H](C)O)C(C)C)[C@@H](C)O` [Example 82, N-alpha-[2-(2-{2-[2-(2-{2-[(S)-4-Carboxy-4-(17-carboxyheptadecanoylamino)butyrylamino]ethoxy}ethoxy)acetylamino]ethoxy}ethoxy)acetyl]-[Glu1,Glu14,His17,Pro37]-pramlintide] ({C18 diacid-γGlu-AEEA-AEEA}-ECNTATCATQRLAEFLHHSSNNFGPILPPTNVGSNTP-NH2; disulfide 2-7 (inferred); C-terminus assumed), the EC50 (in general, the concentration at which the effect is half-maximal) in data set [1] came to 0.108 nM; in data set [3] (setting [15]), 0.288 nM. Also, the solubility at 18 h in data set [2] (setting [5]), in data set [2] (setting [6]), in data set [2] (setting [7]), in data set [2] (setting [8]), in data set [2] (setting [9]) and in data set [2] (setting [10]) was over 200 µM each time. Besides, the solubility at 18 h in data set [2] (setting [11]), in data set [2] (setting [12]), in data set [2] (setting [13]) and in data set [2] (setting [14]) was over 200 µM in each case. In addition, the “ThT pH 4.0 lag time (h)” value in data set [4] (ThT fibrillation assay) was found to be 14 h.

Turning to `CC[C@H](C)[C@H](NC(=O)[C@@H]1CCCN1C(=O)CNC(=O)[C@H](Cc1ccccc1)NC(=O)[C@H](CC(N)=O)NC(=O)[C@@H](NC(=O)[C@H](CO)NC(=O)[C@H](CO)NC(=O)[C@H](Cc1c[nH]cn1)NC(=O)[C@H](Cc1c[nH]cn1)NC(=O)[C@H](CC(C)C)NC(=O)[C@H](Cc1ccccc1)NC(=O)[C@H](CCC(=O)O)NC(=O)[C@H](C)NC(=O)[C@H](CC(C)C)NC(=O)[C@H](CCCNC(=N)N)NC(=O)[C@H](CCC(N)=O)NC(=O)[C@@H](NC(=O)[C@H](C)NC(=O)[C@@H]1CSSC[C@H](NC(=O)[C@H](CCCCN)NC(=O)CC[C@H](NC(=O)CCCCCCCCCCCCCCCCCCC(=O)O)C(=O)O)C(=O)N[C@@H](CC(N)=O)C(=O)N[C@@H]([C@@H](C)O)C(=O)N[C@@H](C)C(=O)N[C@@H]([C@@H](C)O)C(=O)N1)[C@@H](C)O)[C@@H](C)O)C(=O)N[C@@H](CC(C)C)C(=O)N1CCC[C@H]1C(=O)N1CCC[C@H]1C(=O)N[C@H](C(=O)N[C@@H](CC(N)=O)C(=O)N[C@H](C(=O)NCC(=O)N[C@@H](CO)C(=O)N[C@@H](CC(N)=O)C(=O)N[C@H](C(=O)N1CCC[C@H]1C(N)=O)[C@@H](C)O)C(C)C)[C@@H](C)O` [Example 146, N-alpha-[(S)-4-Carboxy-4-(19-carboxynonadecanoylamino)butyryl]-[Glu14,His17,Thr21,Pro37]-pramlintide] ({C20 diacid-γGlu}-KCNTATCATQRLAEFLHHSSTNFGPILPPTNVGSNTP-NH2; disulfide 2-7 (inferred)), the EC50 is 0.091 nM in data set [1] and 0.0595 nM in data set [3] (setting [15]). For the same molecule, the solubility at 18 h in data set [2] (setting [5]), in data set [2] (setting [6]), in data set [2] (setting [7]), in data set [2] (setting [16]), in data set [2] (setting [17]) and in data set [2] (setting [8]) was over 200 µM throughout. Moreover, the solubility at 18 h in data set [2] (setting [18]), in data set [2] (setting [9]), in data set [2] (setting [10]), in data set [2] (setting [11]), in data set [2] (setting [12]) and in data set [2] (setting [13]) was over 200 µM each time. Moreover, the solubility (in general, the concentration that dissolves in the medium under given conditions) at 18 h in data set [2] (setting [14]) is over 200 µM. Also, the “ThT pH 4.0 lag time” value in data set [4] (Table 8), in data set [4] (Table 9) and in data set [4] (ThT fibrillation assay) was over 45 h throughout. For the same molecule, the “ThT pH 4.0 lag time (h)” value in data set [4] (ThT fibrillation assay) is over 45 h.

In the case of `CC[C@H](C)[C@H](NC(=O)[C@@H]1CCCN1C(=O)CNC(=O)[C@H](Cc1ccccc1)NC(=O)[C@H](CC(N)=O)NC(=O)[C@H](CO)NC(=O)[C@H](CO)NC(=O)[C@H](CO)NC(=O)[C@H](Cc1c[nH]cn1)NC(=O)[C@H](CCCCNC(=O)COCCOCCNC(=O)COCCOCCNC(=O)CC[C@H](NC(=O)CCCCCCCCCCCCCCCCC(=O)O)C(=O)O)NC(=O)[C@H](CC(C)C)NC(=O)[C@H](Cc1ccccc1)NC(=O)[C@H](CCC(=O)O)NC(=O)[C@H](C)NC(=O)[C@H](CC(C)C)NC(=O)[C@H](CCCNC(=N)N)NC(=O)[C@H](CCC(N)=O)NC(=O)[C@@H](NC(=O)[C@H](C)NC(=O)[C@@H]1CSSC[C@H](NC(=O)[C@@H](N)CCCCN)C(=O)N[C@@H](CC(N)=O)C(=O)N[C@@H]([C@@H](C)O)C(=O)N[C@@H](C)C(=O)N[C@@H]([C@@H](C)O)C(=O)N1)[C@@H](C)O)C(=O)N[C@@H](CC(C)C)C(=O)N1CCC[C@H]1C(=O)N1CCC[C@H]1C(=O)N[C@H](C(=O)N[C@@H](CC(N)=O)C(=O)N[C@H](C(=O)NCC(=O)N[C@@H](CO)C(=O)N[C@@H](CCC(=O)O)C(=O)N[C@H](C(=O)N[C@@H](Cc1ccc(O)cc1)C(N)=O)[C@@H](C)O)C(C)C)[C@@H](C)O` [Example 83, N-epsilon17-[2-(2-{2-[2-(2-{2-[(S)-4-Carboxy-4-(17-carboxyheptadecanoylamino)butyrylamino]ethoxy}ethoxy)acetylamino]ethoxy}ethoxy)acetyl]-[Glu14,Lys17,Ser21,Glu35]-pramlintide] (H-KCNTATCATQRLAEFLK([AEEA-AEEA-γGlu-C18 diacid])HSSSNFGPILPPTNVGSETY-NH2; disulfide 2-7 (inferred); N-terminus and C-terminus assumed), the EC50 in data set [1] was found to be 1.75 nM; in data set [3] (Table 11, read-out: CTa receptor human EC50), 8.43 nM. Also, the solubility at 18 h in data set [2] (setting [5]), in data set [2] (setting [6]), in data set [2] (setting [7]), in data set [2] (setting [16]), in data set [2] (setting [17]) and in data set [2] (setting [8]) was over 200 µM each time. The solubility at 18 h in data set [2] (setting [18]), in data set [2] (setting [9]), in data set [2] (setting [10]), in data set [2] (setting [11]), in data set [2] (setting [12]) and in data set [2] (setting [13]) was over 200 µM in each case. Moreover, in data set [2] (setting [14]), the solubility at 18 h was over 200 µM. Further, the “ThT pH 4.0 lag time” value in data set [4] (Table 8), in data set [4] (Table 9) and in data set [4] (ThT fibrillation assay) was over 45 h each time. Also, in data set [4] (ThT fibrillation assay), the “ThT pH 4.0 lag time (h)” value is given as over 45 h.

The values above are taken from patent publication US8722849B2, “Polypeptides” (Novo Nordisk A/S, priority 2011, dated 2014).
